Assays:
[1] = Cytotoxicity against human PBMC assessed as cell viability measured during cytokines production assay at 100 uM after 21 hrs by MTS assay; type: cell-based; settings: PBMC (peripheral blood mononuclear cells)
[2] = Cytotoxicity against human PBMC assessed as cell viability measured during MIF secretion assay at 100 uM after 21 hrs by MTS assay; type: cell-based; settings: PBMC (peripheral blood mononuclear cells)
PBMC [3] = assay: Antiinflammatory activity in human PBMC assessed as inhibition of MIF-induced IL-6 production at 100 uM after 21 hrs by ELISA; type: functional
PBMC [4] = assay: Antiinflammatory activity in human PBMC assessed as inhibition of MIF-induced IL-6 production at 30 uM after 21 hrs by ELISA; type: functional
[5] = target: T1, Macrophage migration inhibitory factor (Homo sapiens) (UniProt P14174); assay: Inhibition of MIF in human PBMC assessed as MIF secretion at 100 uM after 5 hrs by ELISA
T1 sequence (whole entry): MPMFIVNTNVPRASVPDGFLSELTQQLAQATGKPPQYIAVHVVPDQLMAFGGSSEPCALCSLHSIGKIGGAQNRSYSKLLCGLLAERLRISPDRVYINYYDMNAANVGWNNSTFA

PBMC [6] = assay: Antiinflammatory activity in human PBMC assessed as inhibition of MIF-induced IL1-beta production at 100 uM after 21 hrs by ELISA; type: functional
PBMC [7] = assay: Antiinflammatory activity in human PBMC assessed as inhibition of MIF-induced TNFalpha production at 100 uM after 21 hrs by ELISA; type: functional
[8] = target: T1, Macrophage migration inhibitory factor (Homo sapiens); assay: Inhibition of MIF in human PBMC assessed as MIF secretion at 10 uM after 5 hrs by ELISA
[9] = target: T1, Macrophage migration inhibitory factor (Homo sapiens); assay: Inhibition of human purified MIF tautomerase activity at 100 uM after 30 mins
[10] = target: T1, Macrophage migration inhibitory factor (Homo sapiens); assay: Inhibition of human purified MIF tautomerase activity at 10 uM after 30 mins

SMILES	cytotoxicity at 21 h, 100 µM [1]	cytotoxicity at 21 h, 100 µM [2]	inhibition at 100 µM (PBMC [3])	inhibition at 30 µM (PBMC [4])	inhibition [5]	inhibition at 100 µM (PBMC [6])	inhibition at 100 µM (PBMC [7])	inhibition [8]	inhibition [9]	inhibition [10]
OCCC1CC(c2ccoc2)=NO1 (stereo not given)	10%	0%	7%	18%	58%	0%	11%	39%	23%	3%
c1ccc2c(c1)ccn2CC1CC(c2ccoc2)=NO1 (stereo not given)	6%	0%	6%	0%	95%	19%	30%	68%	100%	26%
FC(F)(F)c1cccc(-n2cc(C3=NOC(Cn4ccc5ccccc54)C3)c3ccccc32)c1 (stereo not given)	16%	0%	17%	15%	8%	44%	30%	0%	100%	18%
O=C1c2ccccc2C(=O)N1C1CC(c2cn(-c3cccc(C(F)(F)F)c3)c3ccccc23)=NO1 (stereo not given)	11%	0%	24%	6%	0%	43%	63%	0%	47%	8%

— ChEMBL document CHEMBL1681642, “Synthesis and biological activity of novel MIF antagonists” (Bioorg Med Chem Lett, 2011)
